Experimental findings from ChEMBL document CHEMBL1201862, “PubChem BioAssay data set” (2004) are described below.

Some test systems named below: CCRF-CEM; T47D; SN12C; MDA-N; PC-3; BT-549; COLO 205; UO-31; OVCAR-4; SW-620; SK-MEL-28; MDA-MB-231; NCI/ADR-RES; UACC-257; SK-MEL-5; OVCAR-5; SNB-19; SK-MEL-2; NCI-H226; EKVX.
What all share (assay): NCI tumour cell line growth inhibition, 48 h

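Results reflect a 48-hour exposure of cells in 96-well plates to compound at five concentrations. GI50 is the concentration that inhibits growth by half.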 Active and inactive are the calls of the source. No stated cut-off is given here; in the data, active = GI50 up to about 1.1 µM and inactive = higher.

Consider `O=C1NC(=S)NC(=O)C1=Cc1cccc2cc3ccccc3cc12`, for which the GI50 was 0.378 µM (active) in the test on CCRF-CEM; 0.9 µM (active) in the test with T47D; 2.32 µM (inactive) with SN12C; 2.19 µM (inactive) in the test on MDA-N; 1.74 µM (inactive) in the test with PC-3; 1.71 µM (inactive) in the test on BT-549. The GI50 is 1.88 µM (inactive) in the test with COLO 205; 1.95 µM (inactive) with UO-31; 2.28 µM (inactive) in the test with OVCAR-4; 2.58 µM (inactive) in the test with SW-620; 2.57 µM (inactive) with SK-MEL-28; 2.01 µM (inactive) in the test on MDA-MB-231. Moreover, the GI50 in the test on NCI/ADR-RES was 2.22 µM (inactive); with UACC-257, 1.78 µM (inactive); with SK-MEL-5, 2.07 µM (inactive); with OVCAR-5 it was 2.3 µM (inactive); in the test on SNB-19, 2.28 µM (inactive); with SK-MEL-2, 1.92 µM (inactive). Moreover, the values for the GI50 in the test with NCI-H226 and in the test with EKVX were 2.03 µM (inactive) and 2.91 µM (inactive), respectively.

Consider `CCOC(=O)c1[nH]c(Br)c(-c2ccc(OC)c(OC)c2)c1Br`, for which the GI50 is 0.0173 µM (active) in the test on CCRF-CEM; 21 µM (inactive) in the test with T47D; 0.117 µM (active) in the test with SN12C; 0.00567 µM (active) with MDA-N; 0.0356 µM (active) with PC-3; 0.054 µM (active) in the test on BT-549. Further, the GI50 with COLO 205 was 0.175 µM (active); in the test with UO-31, 0.0676 µM (active); in the test with OVCAR-4 it was 4.82 µM (inactive); with SW-620, 0.0302 µM (active); in the test with SK-MEL-28, 0.0562 µM (active); with MDA-MB-231, 0.321 µM (active). Also, the GI50 was 0.00434 µM (active) in the test on NCI/ADR-RES; 0.00386 µM (active) with UACC-257; 0.0412 µM (active) with SK-MEL-5; 5.27 µM (inactive) with OVCAR-5; 0.181 µM (active) with SNB-19; 0.0336 µM (active) with SK-MEL-2. The GI50 with NCI-H226 is 0.0381 µM (active); in the test on EKVX, 4.12 µM (inactive).

In the case of `COc1ccc(Cl)cc1NC(=O)O/N=C(\Cl)C(C)C`, the GI50 with CCRF-CEM was 1.04 µM (active); in the test with T47D it was 3.38 µM (inactive); in the test with SN12C, 8.49 µM (inactive); in the test on MDA-N, 11.4 µM (inactive); in the test on PC-3, 17.4 µM (inactive); with BT-549, 2.56 µM (inactive). Further, the GI50 with COLO 205 was 2.19 µM (inactive); in the test with UO-31 it was 13.8 µM (inactive); in the test on OVCAR-4, 17.2 µM (inactive); in the test with SW-620, 2.7 µM (inactive); with SK-MEL-28 it was 18.4 µM (inactive); in the test with MDA-MB-231, 6.22 µM (inactive). The GI50 was 5.27 µM (inactive) with NCI/ADR-RES; 17.1 µM (inactive) in the test on UACC-257; 5.22 µM (inactive) in the test with SK-MEL-5; 18.4 µM (inactive) in the test with OVCAR-5; 29.5 µM (inactive) in the test with SNB-19; 18.7 µM (inactive) in the test with SK-MEL-2. Moreover, the GI50 in the test on NCI-H226 is 12.7 µM (inactive); in the test on EKVX it was 3.74 µM (inactive).

With `Cn1c(=O)nc2n(CCO)ccnc-2c1=O`, the GI50 in the test with CCRF-CEM, with T47D, in the test on SN12C, with MDA-N, in the test with PC-3 and with BT-549 was > 100 µM (inactive) throughout. The GI50 in the test with COLO 205, in the test with UO-31, in the test with OVCAR-4, in the test on SW-620, in the test with SK-MEL-28 and in the test with MDA-MB-231 was > 100 µM (inactive) in each case. The GI50 in the test on NCI/ADR-RES, in the test with UACC-257, with SK-MEL-5, in the test on OVCAR-5, with SNB-19 and in the test with SK-MEL-2 was > 100 µM (inactive) each time. In addition, the GI50 with NCI-H226 and with EKVX was > 100 µM (inactive) each time.

Turning to `COc1cc2c(cc1OCCCCCN1C(=O)c3cccc4cccc(c34)C1=O)N=C[C@@H]1CCCN1C2=O`, the GI50 with CCRF-CEM is 0.0142 µM (active); in the test with T47D, 0.13 µM (active); with SN12C, 0.336 µM (active); in the test on MDA-N it was 0.207 µM (active); in the test with PC-3 it was 0.282 µM (active); in the test with BT-549, 0.244 µM (active). The GI50 was 0.28 µM (active) in the test with COLO 205; 0.153 µM (active) in the test with UO-31; 0.248 µM (active) in the test with OVCAR-4; 0.278 µM (active) in the test with SW-620; 0.301 µM (active) in the test on SK-MEL-28; 0.286 µM (active) in the test on MDA-MB-231. In addition, the GI50 was 0.421 µM (active) with NCI/ADR-RES; 0.323 µM (active) in the test on UACC-257; 0.257 µM (active) in the test on SK-MEL-5; 0.406 µM (active) with OVCAR-5; 0.327 µM (active) in the test on SNB-19; 0.223 µM (active) with SK-MEL-2. Further, the GI50 was 0.177 µM (active) with NCI-H226 and 0.492 µM (active) with EKVX.

Take `CC1=Nc2ccccc2/C1=C\c1c(C)[nH]c2ccccc12`: the GI50 in the test on CCRF-CEM was 5.04 µM (inactive); with T47D it was 9.53 µM (inactive); in the test on SN12C, 21.4 µM (inactive); in the test with MDA-N, 6.75 µM (inactive); in the test on PC-3, 13.6 µM (inactive); in the test on BT-549, 3.55 µM (inactive). The GI50 was 19.1 µM (inactive) with COLO 205; 13.6 µM (inactive) with UO-31; 12.4 µM (inactive) in the test with OVCAR-4; 11 µM (inactive) in the test on SW-620; 16.6 µM (inactive) in the test with SK-MEL-28; 13.4 µM (inactive) in the test with MDA-MB-231. Moreover, the GI50 is 16.2 µM (inactive) in the test on NCI/ADR-RES; 13.2 µM (inactive) in the test with UACC-257; 14.1 µM (inactive) in the test with SK-MEL-5; 23.4 µM (inactive) in the test with OVCAR-5; 16.6 µM (inactive) with SNB-19; 17.8 µM (inactive) in the test on SK-MEL-2. Also, the GI50 was 15.2 µM (inactive) with NCI-H226 and 12.2 µM (inactive) in the test on EKVX.

For `CCC1CC(C)C(O)/C=C/C=C/CC(C)OC(=O)CC(O)C(OC)C1OC1OC(C)CC(O)(C(C)=O)C1O` (stereo not given), the GI50 was 46.5 µM (inactive) in the test with CCRF-CEM; 51.4 µM (inactive) with T47D; 42.1 µM (inactive) in the test with SN12C; 36.4 µM (inactive) in the test with MDA-N; 66.1 µM (inactive) with PC-3; 40.6 µM (inactive) in the test with BT-549. Besides, the GI50 with COLO 205 was 63.1 µM (inactive); in the test on UO-31, 47.3 µM (inactive); with OVCAR-4, 8.47 µM (inactive); in the test with SW-620 it was > 100 µM (inactive); in the test on SK-MEL-28, > 100 µM (inactive); with MDA-MB-231, 16 µM (inactive). Besides, the GI50 in the test with NCI/ADR-RES was 49 µM (inactive); with UACC-257, 37.9 µM (inactive); with SK-MEL-5 it was 69 µM (inactive); in the test on OVCAR-5, > 100 µM (inactive); with SNB-19, 19.3 µM (inactive); with SK-MEL-2, 39.1 µM (inactive). Besides, the GI50 is 47.6 µM (inactive) in the test on NCI-H226 and 57.7 µM (inactive) in the test with EKVX.
